Consider four compounds from US10588313B1, “Compounds of fatty acids and ammonium fatty acid salts” (Falcon Lab, LLC, priority 2019, dated 2020).

In one data set the test system is S. aureous. The data set can be described thus: AOAC International Use-Dilution Method, comparison test. The settings on record: 2.5% solution.
The next data set concerns Streptococcus Group A. As to conditions: even numbered fatty acids C8 to C18; cited from earlier work.
The next data set deals with Staphlycoccus aureous. The settings on record: even numbered fatty acids C8 to C18; cited from earlier work.
In another data set the test system is Candida albicans. The settings on record: even numbered fatty acids C8 to C18; cited from earlier work.
Data set [1] relates to Staphylococcus aureus ATCC 6538. The data set can be described thus: ASTM International Method E2315 assessment of antibacterial activity (time kill in suspension). It is filed as cell-based. As to conditions: for percent reduction in bacteria: 1% dispersion in water; for percent reduction of the test bacteria: pH 6, 30 seconds contact time. As to the method:
A 1:99 mixture of the solid compound described in Experiment 1 was made by adding 0.2 gm. to 19.8 ml. of sterile water. […]. One ml of the inoculated substance was harvested at each contact time and neutralized in 9 ml of D/E broth. Enumerations were performed for each time point using standard microbiologic plating methods. At time zero, the percent reduction in bacteria was already 99.9997%, the limit of detection. The percent reduction at 30 seconds, 2 minutes and 10 minutes were also 99.9997%. When 0.1 ml of the 1% dispersion was diluted with 9.9 ml of sterile water to prepare a 0.1% dispersion and the same tests run, the percent reduction in bacteria count was 99.9997% at the 30-second contact time.

Another data set concerns Escherichia coli 8739. The data set can be described thus: ASTM E2315 antibacterial activity. It is filed as cell-based. The settings on record: 1% dispersion, 30 seconds contact time. The method, then:
(§1) A 1:99 mixture of the solid compound described in Experiment 1 was made by adding 0.2 gm. to 19.8 ml. of sterile water. Following ASTM International Method E2315 for assessment of antibacterial activity, 10 ml of this uniform mixture was aliquoted into a sterile vessel to produce a 1% dispersion that was then inoculated with the Gram-positive bacterium Staphylococcus aureus ATCC 6538 at 25° C. for a target concentration of 1×10^6 CFU (cells)/ml. One ml of the inoculated substance was harvested at each contact time and neutralized in 9 ml of D/E broth. Enumerations were performed for each time point using standard microbiologic plating methods. At time zero, the percent reduction in bacteria was already 99.9997%, the limit of detection. The percent reduction at 30 seconds, 2 minutes and 10 minutes were also 99.9997%. When 0.1 ml of the 1% dispersion was diluted with 9.9 ml of sterile water to prepare a 0.1% dispersion and the same tests run, the percent reduction in bacteria count was 99.9997% at the 30-second contact time.
(§2) The 1% dispersion described in Example 3 was contacted with the Gram-negative bacteria Escherichia coli 8739 and Pseudomonas aeruginosa 15442 each in the manner described in Example 2. After 30 seconds of contact time, the reductions of the test bacteria were 99.9996% and 99.995% respectively.

Data set [2] has as its system Pseudomonas aeruginosa 15442. The experiment in a line: ASTM E2315 antibacterial activity. As to conditions: 1% dispersion, 30 seconds contact time. The class given is cell-based. The method, then:
as §1, §2

In data set [3] the test system is Enterococcus faecalis 29212. The data set can be described thus: ASTM E2315 antibacterial activity. The settings on record: 1% dispersion, 30 second contact time. The class given is cell-based. As to the method:
as §1
The same dispersion used in Examples 4 and 5 was tested against Gram-positive Enterococcus faecalis 29212 in the manner described in Example 2. After 30 second contact time, the bacterial reduction was >99.9986%.

For data set [4], the system named is Salmonella enterica ATCC 10708. The data set can be described thus: AOAC International Use-Dilution Method (hard surface disinfectant, steel penicylinders). The class given is cell-based. The settings on record: 2% dispersion, ten minutes exposure.
The next data set in a line: pH of water dispersion. It is filed as physicochemical. The method, then:
(§3) A slurry of white solid formed immediately. About 200 ml of distilled water were added with stirring to obtain a clear solution with a pH of 8. […] It melted sharply at 62° C.
After standing for 4 hours, a white, opaque, uniform thin liquid was obtained. The pH of the liquid was 6. The bottle was then shaken vigorously for several minutes. The contents of the bottle changed to a foamy, motionless, thick gel that totally filled the bottle. After standing overnight, the gel remained the same, still filling the bottle. But after standing for 48 hours, the gel reverted to the original thin liquid. Upon shaking the bottle again, the thick gel reappeared.

The nature of data set [5]: Stability of solid and of water dispersion on storage. The class given is physicochemical. The settings on record: no emulsifier or surfactant.
Excerpt: The compounds are believed to form as the result of hydrogen bonding wherein a hydrogen atom covalently bonded to nitrogen becomes attracted to the oxygen of the carboxylic acid forming a hydrogen bond.
Since the compounds are stable at ambient temperatures and pressures and exist as non-hygroscopic crystalline solids, they may be transported as 100% active ingredients to their point of use. […] The compounds can be stored and shipped in any type of container, including plastic, paper or cloth bags, metal, glass or plastic. In an embodiment, the compounds can be transported in such containers to the point of use by mixing with water to produce disinfecting compositions.
When the solid compound is mixed with water, it completely distributes in the water to produce a uniform composition in the absence of any emulsifier, surfactant, soap, wetting agent, dispersing agent or suspending agent. The solid compound, while being water-insoluble, remains stable as a dispersion indefinitely.
as §3

Method for S. aureous: In this test, 60 sterilized steel penicylinders are inoculated by soaking in a test culture of the bacteria. The cylinders are then dried in an incubator. After drying, they are submerged in test tubes containing the test substance and allowed to incubate for ten minutes. They are then aseptically transferred to individual tubes containing neutralization/growth medium. The neutralization/growth medium tubes are shaken and incubated. After the incubation period, tubes are qualitatively assessed for growth of the test organism.
AOAC has defined the passing criteria for this test as a disinfectant to be less than or equal to 3 positive carriers out of 60 when testing against S. aureous.

Consider `CCCCCCCCC(=O)O.N` [ammonium nonanoate], for which, in the data set with S. aureous, the “AOAC disinfectant test result” value is recorded as “no disinfectant properties”. In the data set on S. aureous (pass = less than or equal to 3 positive carriers out of 60), the “number of confirmed positive test tubes out of 60 carriers” value is 60.

Turning to `CCCCCCCCCC(=O)O` [capric acid], the “antimicrobial activity among fatty acids tested” value in the data set on Streptococcus Group A, in the data set with Staphlycoccus aureous and in the data set on Candida albicans was “highest activity” throughout.

Take ammonium di-nonanoate [Example 1]: the “percent reduction in bacteria count” value in data set [1] (0.1% dispersion in water, 30-second contact time) was 99.9997%. Moreover, the “percent reduction in bacteria” value came to 99.9997% in data set [1] (30 seconds contact time); 99.9997% in data set [1] (2 minutes contact time); 99.9997% in data set [1] (10 minutes contact time); 99.9997% in [1] (time zero, 25° C., 1×10^6 CFU/ml, 99.9997% = limit of detection). Further, the “percent reduction of the test bacteria” value in data set [1] (1% dispersion of solid stored in a plastic container for over 5 years) is given as greater than 99.9997%. The “reduction of the test bacteria” value was 99.9996% in the data set on Escherichia coli 8739 and 99.995% in [2]. This compound displayed a bacterial reduction in data set [3] greater than 99.9986%. For the same compound, the “AOAC disinfectant test result” value in [4] was “pass”. Also, the “number of positive test tubes (growth) out of 60 carriers” value in data set [4] (pass = less than or equal to 1 positive carrier out of 60) worked out at 0. Also, the “pH of water dispersion” value in the data set “pH of water dispersion” (1% dispersion in distilled water), in “pH of water dispersion” (10% dispersion in distilled water) and in “pH of water dispersion” (concentration not given) was 6 each time. Also, the “stability of water dispersion on storage” value in data set [5] is “remained unchanged in appearance after months of storage”.

On to ammonium di-octanoate [Example 10], for which the “percent reduction of the test bacteria” value in data set [1] (0.5% dispersion in water) is greater than 99.988%. Besides, the “pH of water dispersion” value in the data set “pH of water dispersion” (0.5% dispersion in distilled water) is 6.
